Source: patent US20240246964A1 (Arbutus Biopharma Corporation, priority 2021, published 2024)

Target: human PD-L1 (Homo sapiens (Human), UniProt Q9NZQ7)
Assay: T cell activation luciferase reporter cell culture system (T Cell Activation Assay)
Assay type: cell-based
Details: luciferase reporter assay; PD-L1 aAPC/CHO-K1 cells with PD-1 effector Jurkat T cells

Sequence of human PD-L1 (Q9NZQ7 19-290): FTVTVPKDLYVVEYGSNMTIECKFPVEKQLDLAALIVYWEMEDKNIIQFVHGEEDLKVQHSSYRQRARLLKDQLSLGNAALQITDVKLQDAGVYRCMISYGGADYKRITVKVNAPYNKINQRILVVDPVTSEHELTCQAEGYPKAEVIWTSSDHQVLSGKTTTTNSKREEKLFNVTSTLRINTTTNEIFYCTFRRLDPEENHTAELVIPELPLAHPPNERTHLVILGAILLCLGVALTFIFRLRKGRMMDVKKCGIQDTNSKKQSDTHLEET

`COc1cc(-c2nccc(-c3cccc(-c4ccc(CNC5CCN(C(=O)CO)CC5)c(OC)n4)c3Cl)c2Cl)ccc1CNC1CCN(C(=O)CO)CC1` [Example 443, 1-(4-(((6-(2-Chloro-3-(3-chloro-2-(4-(((1-(2-hydroxyacetyl)piperidin-4-yl)amino)methyl)-3-methoxyphenyl)pyridin-4-yl)phenyl)-2-methoxypyridin-3-yl)methyl)amino)piperidin-1-yl)-2-hydroxyethan-1-one] was tested. Which EC50 did it give?
The EC50 was 10.5 nM.

For `COc1nc(-c2cccc(-c3ccnc(-c4cnc5c(CN6CC7(CNC(=O)C7)C6)cn(C)c5c4)c3Cl)c2Cl)ccc1CNC[C@@H]1CCC(=O)N1` [Example 378, (S)-2-((6-(3-Chloro-4-(2-chloro-3-(6-methoxy-5-((((5-oxopyrrolidin-2-yl)methyl)amino)methyl)pyridin-2-yl)phenyl)pyridin-2-yl)-1-methyl-1H-pyrrolo[3,2-b]pyridin-3-yl)methyl)-2,6-diazaspiro[3.4]octan-7-one], which EC50 is on record?
Its EC50 is 73.8 nM.

For `COc1nc(-c2cccc(-c3ccnc(-c4ccc5c(c4)CCC[C@H]5NC[C@@H]4CCC(=O)N4)c3Cl)c2Cl)ccc1CN1CC2(CNC(=O)C2)C1` [Example 255, 2-((6-(2-chloro-3-(3-chloro-2-((R)-5-((((S)-5-oxopyrrolidin-2-yl)-methyl)-amino)-5,6,7,8-tetrahydronaphthalen-2-yl)pyridin-4-yl)phenyl)-2-methoxypyridin-3-yl)methyl)-2,6-diazaspiro[3.4]octan-7-one], which EC50 is on record?
Its EC50 is 305 nM.

For `COc1cc(-c2nccc(-c3cccc(-c4ccc(CNC(C)C)c(OC)n4)c3Cl)c2Cl)ccc1CNC(C)C` [Example 514, N-((6-(2-Chloro-3-(3-chloro-2-(4-((isopropylamino)methyl)-3-methoxyphenyl)pyridin-4-yl)phenyl)-2-methoxypyridin-3-yl)methyl)propan-2-amine], which EC50 is on record?
The EC50 was 94.5 nM.

For `COc1cc(-c2nccc(-c3cccc(-c4ccc(CN5CC6(CNC(=O)C6)C5)c(OC)n4)c3Cl)c2Cl)ccc1CN1CC(C)(O)C1` [Example 498, 2-((6-(2-Chloro-3-(3-chloro-2-(4-((3-hydroxy-3-methylazetidin-1-yl)methyl)-3-methoxyphenyl)pyridin-4-yl)phenyl)-2-methoxypyridin-3-yl)methyl)-2,6-diazaspiro[3.4]octan-7-one], which EC50 is on record?
The EC50 was 26.5 nM.

`COc1cc(-c2nccc(-c3cccc(-c4ccc(CN[C@H]5CC[C@@H](O)CC5)c(OC)n4)c3Cl)c2Cl)ccc1CN[C@H]1CC[C@@H](O)CC1` [Example 410, (1s,4s)-4-(((6-(2-Chloro-3-(3-chloro-2-(4-((((1s,4s)-4-hydroxycyclohexyl)amino)methyl)-3-methoxyphenyl)pyridin-4-yl)phenyl)-2-methoxypyridin-3-yl)methyl)amino)cyclohexan-1-ol] was tested. Which EC50 did it give?
Its EC50 is 46.3 nM.

For `COc1cc(-c2ncnc(-c3cccc(-c4ccc(CNC5CCOCC5)c(OC)n4)c3Cl)c2Cl)ccc1CNC1CCOCC1` [Example 626, N-((6-(2-Chloro-3-(5-chloro-6-(3-methoxy-4-(((tetrahydro-2H-pyran-4-yl)amino)methyl)phenyl)pyrimidin-4-yl)phenyl)-2-methoxypyridin-3-yl)methyl)tetrahydro-2H-pyran-4-amine], which EC50 is on record?
Its EC50 is 79 nM.

Which EC50 does the source give for `COc1cc(-c2nccc(-c3cccc(-c4ccc(CN(C)C)c(OC)n4)c3Cl)c2Cl)ccc1CN(C)C` [Cmpd 137, 1-(6-(2-chloro-3-(3-chloro-2-(4-((dimethylamino)methyl)-3-methoxyphenyl)pyridin-4-yl)phenyl)-2-methoxypyridin-3-yl)-N,N-dimethylmethanamine] here?
The EC50 was 84.3 nM.

How did the EC50 turn out when `COc1cc(-c2nccc(-c3cccc(-c4ccc(CN5CC6(CNC(=O)C6)C5)c(OC)n4)c3F)c2F)ccc1CN1CC2(CNC(=O)C2)C1` [Example 451, 2-(4-(3-Fluoro-4-(2-fluoro-3-(6-methoxy-5-((7-oxo-2,6-diazaspiro[3.4]octan-2-yl)methyl)pyridin-2-yl)phenyl)pyridin-2-yl)-2-methoxybenzyl)-2,6-diazaspiro[3.4]octan-7-one] was run?
The EC50 was 1970 nM.

For `CCOc1cc(-c2nccc(-c3cccc(-c4ccc(CNC5CCN(C(C)=O)CC5)c(OC)n4)c3Cl)c2Cl)cn2nc(CN3CC4(CNC(=O)C4)C3)nc12` [Example 586, 2-((6-(4-(3-(5-(((1-Acetylpiperidin-4-yl)amino)methyl)-6-methoxypyridin-2-yl)-2-chlorophenyl)-3-chloropyridin-2-yl)-8-ethoxy-[1,2,4]triazolo[1,5-a]pyridin-2-yl)methyl)-2,6-diazaspiro[3.4]octan-7-one], which EC50 is on record?
The EC50 was 205 nM.

With `COCC(=O)N1CCC(NCc2ccc(-c3cccc(-c4ccnc(-c5ccc(CN6CC7(CNC(=O)C7)C6)c(OC)c5)c4Cl)c3Cl)nc2OC)CC1` [Example 490, 2-(4-(3-Chloro-4-(2-chloro-3-(6-methoxy-5-(((1-(2-methoxyacetyl)piperidin-4-yl)amino)methyl)pyridin-2-yl)phenyl)pyridin-2-yl)-2-methoxybenzyl)-2,6-diazaspiro[3.4]octan-7-one] as the compound, how does the EC50 read?
Its EC50 is 17.9 nM.

Which EC50 does the source give for `COc1cc(-c2nccc(-c3cccc(-c4ccc(CNC5CCN(C(C)=O)CC5)c(OC)n4)c3Cl)c2Cl)ccc1CN1CCC(O)CC1` [Example 459, 1-(4-(((6-(2-Chloro-3-(3-chloro-2-(4-((4-hydroxypiperidin-1-yl)methyl)-3-methoxyphenyl)pyridin-4-yl)phenyl)-2-methoxypyridin-3-yl)methyl)amino)piperidin-1-yl)ethan-1-one] here?
Its EC50 is 33 nM.

Which EC50 does the source give for `COc1nc(-c2ccnc(-c3cccc4c3CC[C@@H]4Oc3nc(OC)c(CN4CC5(C4)CN(C(C)=O)C5)cc3C(F)(F)F)c2Cl)ccc1CN1CC2(C1)CN(C(C)=O)C2` [Example 248, (S)-1-(6-((6-((4-(5-((6-Acetyl-2,6-diazaspiro[3.3]heptan-2-yl)methyl)-3′-chloro-6-methoxy-[2,4′-bipyridin]-2′-yl)-2,3-dihydro-1H-inden-1-yl)oxy)-2-methoxy-5-(trifluoromethyl)pyridin-3-yl)methyl)-2,6-diazaspiro[3.3]heptan-2-yl)ethan-1-one] here?
The EC50 was 596 nM.

For `COc1cc(-c2nccc(-c3cccc(-c4ccc(CNC[C@@H]5CCC(=O)N5)c(OC)n4)c3Cl)c2Cl)cc2c1CCN(C[C@H](C)O)C2` [Cmpd 44, (S)-5-((((6-(2-chloro-3-(3-chloro-2-(2-((S)-2-hydroxypropyl)-5-methoxy-1,2,3,4-tetrahydroisoquinolin-7-yl)pyridin-4-yl)phenyl)-2-methoxypyridin-3-yl)methyl)amino)methyl)pyrrolidin-2-one], which EC50 is on record?
Its EC50 is 54.1 nM.

How did the EC50 turn out when `COc1cc(-c2nccc(-c3cccc(-c4ccc(CN5CC6(CNC(=O)N6)C5)c(OC)n4)c3Cl)c2Cl)ccc1CNC1CCN(C(C)=O)CC1` [Example 526, 2-((6-(3-(2-(4-(((1-Acetylpiperidin-4-yl)amino)methyl)-3-methoxyphenyl)-3-chloropyridin-4-yl)-2-chlorophenyl)-2-methoxypyridin-3-yl)methyl)-2,5,7-triazaspiro[3.4]octan-6-one] was run?
The EC50 was 30.3 nM.

How did the EC50 turn out when `COc1cc(-c2nccc(-c3cccc(-c4ccc(CN5CC6(C5)CN(C(C)=O)C6)c(OC)n4)c3C)c2Cl)ccc1CN1CC2(C1)CN(C(C)=O)C2` [Example 409, 1-(6-((6-(3-(2-(4-((6-acetyl-2,6-diazaspiro[3.3]heptan-2-yl)methyl)-3-methoxyphenyl)-3-chloropyridin-4-yl)-2-methylphenyl)-2-methoxypyridin-3-yl)methyl)-2,6-diazaspiro[3.3]heptan-2-yl)ethan-1-one] was run?
Its EC50 is 274 nM.

How did the EC50 turn out when `COc1cc(-c2nccc(-c3cccc(-c4ccc(CNC[C@@H]5CCC(=O)N5)c(OC)n4)c3Cl)c2Cl)cc(F)c1CN[C@H]1C[C@](C)(O)C1` [Cmpd 79] was run?
The EC50 was 50.6 nM.
